Results taken from patent US6794495B1, “Composition comprising extensin and, optionally, pectic polysaccharides” (New Nordic Danmark APS, priority 1998, dated 2004).

Test system: Tetrahymena thermophila cells
Assay: Oligo-cell experiments: cloning efficiency in synthetic nutrient medium
Type: cell-based
Excerpt: The invention was the result of a laboratory test program using in vivo cell signalling model. The application of a nutritionally complete synthetic (NCS) medium in an oligo-cell experimental research program in which cells demise (or eventually have a prolonged lag-phase) was used for gaining scientific information related to determining the effectiveness of pectins and pectin and extensin combinations as biochemical messengers. An additional control was supplemented with cephalin, that activates cells to multiplication. The effect of an activator added to the NCS medium is compared directly to the control that demises. Apparently, any compound or combination of compounds can be examined in light of the question whether it can activate a cell to survive and/or proliferate. From the beginning of the 1980's the effect of biochemical messengers has been examined with cells grown in an NCS medium free of proteins, lipids, and sugars. Signalling applies to unicellular and multicellular organisms, and the idea of NCS media is that a biochemical messenger can be tested for its biological effect on the cells to gain insight in cellular signalling mechanisms. Biochemical messengers are related to the four biological cornerstones of the eukaryotic cell: survival, proliferation, differentiation, and programmed cell death.
In oligo-cell experiments, different pectins and combinations of pectins and extensins were examined for their ability to activate Tetrahymena thermophila cells to survival and/or proliferation. The Tetrahymena cell has nutritional requirements similar to those of animals. They contain subcellular organelles such as mitochondria and peroxisomes, which are essential for the development of regulatory mechanisms in cellular metabolism. […]
Cloning efficiencies were determined from cell multiplications in a synthetic nutrient medium without and with supplements. […]

Substance: cephalin
- Cloning efficiencies (50 mg/L in synthetic nutrient medium, experiments with cell multiplication after 30 hours / total experiments, about two cells in two mL, first experiment): 15/15
- Cloning efficiencies (50 mg/L in synthetic nutrient medium, experiments with cell multiplication after 30 hours / total experiments, about two cells in two mL, second experiment (sugar beet fiber)): 15/15
- Cloning efficiencies (controls supplemented with cephalin, evaluated after 30 hours): 92%
